Results on 22 compounds are retold here after patent US8691822B2, “Dihydropteridinone derivatives, preparation process and pharmaceutical use thereof” (Jiangsu Hengrui Medicine Co., Ltd., priority 2009, dated 2014).

In this test the test system is human cervix cancer cells Hela. The experiment in a line: Plk Cell Proliferation Inhibition Assay (CCK8, 72 hours). In kind it is cell-based. To be noted: Hela cells highly expressing Plk. The source says: The following in vitro assay is to determine the activity of the compounds of the present invention for inhibiting the proliferation of human cervix cancer cells Hela, which has high expression of Plk.
The in vitro cellular assay described here is to determine the activity of the tested compounds for inhibiting the proliferation of cancer cells, which has high expression of Plk. The activity is represented by the […]. The general procedures for the assay are given as follows: The Hela cells highly expressing Plk (Institute of biochemistry and cell biology) were seeded to 96-well cell culture plate at a suitable concentration (exp 3000 cells/ml medium). The cells then were cultured in carbon dioxide (CO2) incubator and grew overnight. Then, the cell culture medium was replaced by fresh one with tested compounds added in it at serial concentrations (general 7 to 9 concentrations). Then the cells were put back to the incubator and cultured for continuous 72 hours. 72 hours later, the activity of the tested compounds for inhibiting the cell proliferation was determined by using CCK8 (cell counting kit-8, Dojindo, NO:CK04) method. IC50 value on tested cells were calculated by the data of inhibition rates of serial concentrations of the tested compounds.
For the compound `CC[C@@H]1C(=O)N(C)c2cnc(Nc3ccc(C(=O)NCC4CN(C)CCO4)c4c3OCC4)nc2N1C1CCCC1` (stereo partly drawn) [Example 2, 7-[[(7R)-8-cyclopentyl-7-ethyl-5-methyl-6-oxo-7H-pteridin-2-yl]amino]-N-[(4-methylmorpholin-2-yl)methyl]-2,3-dihydrobenzofuran-4-carboxamide], the IC50 amounted to 8 nM.

In turn, `CC[C@@H]1C(=O)N(C)c2cnc(Nc3ccc(C(=O)N[C@@H]4C[C@@H](OC(C)=O)[C@H](N(C)C)C[C@H]4OC(C)=O)c4c3OCC4)nc2N1C1CCCC1` [Example 3, [(1R,2R,4R,5R)-4-Acetoxy-2-[[7-[[(7R)-8-cyclopentyl-7-ethyl-5-methyl-6-oxo-7H-pteridin-2-yl]amino]-2,3-dihydrobenzofuran-4-carbonyl]amino]-5-dimethylamino-cyclohexyl]acetate] displayed an IC50 of 7 nM.

Turning to `CC[C@@H]1C(=O)N(C)c2cnc(Nc3ccc(C(=O)NC4CCN(C)CC4)c4c3OC(C)(C)C4)nc2N1C1CCCC1` [Example 4, 7-[[(7R)-8-Cyclopentyl-7-ethyl-5-methyl-6-oxo-7H-pteridin-2-yl]amino]-2,2-dimethyl-N-(1-methyl-4-piperidyl)-3H-benzofuran-4-carboxamide], half-maximal inhibition (IC50) was put at 2 nM.

On to `CC[C@@H]1C(=O)N(C)c2cnc(Nc3ccc(C(=O)N[C@@H]4C[C@@H]5CN(C)C[C@@H]5C4)c4c3OCC4)nc2N1C1CCCC1` [Example 5], for which half-maximal inhibition (IC50) required 1 nM.

`CC[C@@H]1C(=O)N(C)c2cnc(Nc3ccc(C(=O)N[C@@H]4C[C@@H]5CN(C)C[C@@H]5C4)c4c3OC(C)(C)C4)nc2N1C1CCCC1` [Example 6, (cis-exo)-N-[2-Methyl-3,3a,4,5,6,6a-hexahydro-1H-cyclopenta[c]pyrrol-5-yl]-7-[[(7R)-8-cyclopentyl-7-ethyl-5-methyl-6-oxo-7H-pteridin-2-yl]amino]-2,2-dimethyl-3H-benzofuran-4-carboxamide] showed an IC50 of 2 nM.

`CC[C@@H]1C(=O)N(C)c2cnc(Nc3ccc(C(=O)NC[C@H](O)CN4CCN(CC5CC5)CC4)c4c3OCC4)nc2N1C1CCCC1` [Example 7, 7-[[(7R)-8-Cyclopentyl-7-ethyl-5-methyl-6-oxo-7H-pteridin-2-yl]amino]-N-[(2S)-3-[4-(cyclopropylmethyl)piperazin-1-yl]-2-hydroxy-propyl]-2,3-dihydrobenzofuran-4-carboxamide] showed a half-maximal inhibitory concentration (IC50) of 3 nM.

The compound `CC[C@@H]1C(=O)N(C)c2cnc(Nc3ccc(C(=O)NC[C@H](O)CN4CCN(C)CC4)c4c3OCC4)nc2N1C1CCCC1` [Example 8, 7-[[(7R)-8-Cyclopentyl-7-ethyl-5-methyl-6-oxo-7H-pteridin-2-yl]amino]-N-[(2S)-2-hydroxy-3-(4-methylpiperazin-1-yl)propyl]-2,3-dihydrobenzofuran-4-carboxamide] came in with an IC50 of 3 nM.

Take `CC[C@@H]1C(=O)N(C)c2cnc(Nc3ccc(C(=O)N[C@H]4C[C@@H]5CN(C)C[C@@H]5C4)c4c3OC(C)(C)C4)nc2N1C1CCCC1` [Example 9, (cis-endo)-N-[2-Methyl-3,3α,4,5,6,6α-hexahydro-1H-cyclopenta[c]pyrrol-5-yl]-7-[[(7R)-8-cyclopentyl-7-ethyl-5-methyl-6-oxo-7H-pteridin-2-yl]amino]-2,2-dimethyl-3H-benzofuran-4-carboxamide]: inhibition was half-maximal at 2 nM (IC50).

`CC[C@@H]1C(=O)N(C)c2cnc(Nc3ccc(C(=O)N[C@H]4C[C@@H]5CN(CC6CC6)C[C@@H]5C4)c4c3OC(C)(C)C4)nc2N1C1CCCC1` [Example 10, N-[(cis-endo)-2-(Cyclopropylmethyl)-3,3a,4,5,6,6a-hexahydro-1H-cyclopenta[c]pyrrol-5-yl]-7-[[(7R)-8-cyclopentyl-7-ethyl-5-methyl-6-oxo-7H-pteridin-2-yl]amino]-2,2-dimethyl-3H-benzofuran-4-carboxamide] registered a concentration for half-maximal inhibition (IC50) of 5 nM.

With `CC[C@@H]1C(=O)N(C)c2cnc(Nc3ccc(C(=O)N[C@H]4C[C@@H]5CN(C)C[C@@H]5C4)c4c3OCC4)nc2N1C1CCCC1` [Example 11, (cis-endo)-N-[2-Methyl-3,3a,4,5,6,6a-hexahydro-1H-cyclopenta[c]pyrrol-5-yl]-7-[[(7R)-8-cyclopentyl-7-ethyl-5-methyl-6-oxo-7H-pteridin-2-yl]amino]-2,3-dihydrobenzofuran-4-carboxamide], the IC50 came out at 1 nM.

With `CC[C@@H]1C(=O)N(C)c2cnc(Nc3ccc(C(=O)N[C@H]4CC[C@@H](N5CCN(CC6CC6)CC5)CC4)c4c3OCC4)nc2N1C1CCCC1` [Example 12, 7-[[(7R)-8-Cyclopentyl-7-ethyl-5-methyl-6-oxo-7H-pteridin-2-yl]amino]-N-[(cis)-4-[4-(cyclopropylmethyl)piperazin-1-yl]cyclohexyl]-2,3-dihydrobenzofuran-4-carboxamide], it took 0.8 nM to reach half-maximal inhibition (IC50).

The compound `CC[C@@H]1C(=O)N(C)c2cnc(Nc3ccc(C(=O)N[C@H]4C[C@@H]5CN(CC6CC6)C[C@@H]5C4)c4c3OCC4)nc2N1C1CCCC1` [Example 13, (cis-endo)-N-[2-(Cyclopropylmethyl)-3,3a,4,5,6,6a-hexahydro-1H-cyclopenta[c]pyrrol-5-yl]-7-[[(7R)-8-cyclopentyl-7-ethyl-5-methyl-6-oxo-7H-pteridin-2-yl]amino]-2,3-dihydrobenzofuran-4-carboxamide] gave an IC50 of 1 nM.

With `CC[C@@H]1C(=O)N(C)c2cnc(Nc3ccc(C(=O)N[C@@H]4C[C@H]5CCN(C)C[C@H]5C4)c4c3OCC4)nc2N1C1CCCC1` [Example 14, (cis-endo)-N-[2-Methyl-1,3,3a,4,5,6,7,7a-octahydrocyclopenta[c]pyridin-6-yl]-7-[[(7R)-8-cyclopentyl-7-ethyl-5-methyl-6-oxo-7H-pteridin-2-yl]amino]-2,3-dihydrobenzofuran-4-carboxamide], half-maximal inhibition (IC50) required 1 nM.

Turning to `CC[C@@H]1C(=O)N(C)c2cnc(Nc3ccc(C(=O)NC[C@@H]4CN(C)CCO4)c4c3OCC4)nc2N1C1CCCC1` [Example 15, 7-[[(7R)-8-Cyclopentyl-7-ethyl-5-methyl-6-oxo-7H-pteridin-2-yl]amino]-N-[[(2R)-4-methylmorpholin-2-yl]methyl]-2,3-dihydrobenzofuran-4-carboxamide], the IC50 came out at 3 nM.

In the case of `CC[C@@H]1C(=O)N(C)c2cnc(Nc3ccc(C(=O)N[C@H]4CC[C@H](N5CCN(CC6CC6)CC5)CC4)c4c3OC(C)(C)C4)nc2N1C1CCCC1` [Example 16, 7-[[(7R)-8-Cyclopentyl-7-ethyl-5-methyl-6-oxo-7H-pteridin-2-yl]amino]-N-[(trans)-4-[4-(cyclopropylmethyl)piperazin-1-yl]cyclohexyl]-2,2-dimethyl-3H-benzofuran-4-carboxamide], the IC50 stood at 30 nM.

In turn, `CC[C@@H]1C(=O)N(C)c2cnc(Nc3ccc(C(=O)N[C@H]4CC[C@H](N5CCN(C)CC5)CC4)c4c3OC(C)(C)C4)nc2N1C1CCCC1` [Example 17, 7-[[(7R)-8-Cyclopentyl-7-ethyl-5-methyl-6-oxo-7H-pteridin-2-yl]amino]-2,2-dimethyl-N-[(trans)-4-(4-methylpiperazin-1-yl)cyclohexyl]-3H-benzofuran-4-carboxamide] came in with an IC50 of 10 nM.

For the compound `CC[C@@H]1C(=O)N(C)c2cnc(Nc3ccc(C(=O)N[C@H]4CC[C@H](N5CCN(C)CC5)CC4)c4c3OCC4)nc2N1C1CCCC1` [Example 19, 7-[[(7R)-8-Cyclopentyl-7-ethyl-5-methyl-6-oxo-7H-pteridin-2-yl]amino]-N-[(trans)-4-(4-methylpiperazin-1-yl)cyclohexyl]-2,3-dihydrobenzofuran-4-carboxamide], 3 nM corresponded to half-maximal inhibition (IC50).

Turning to `CC[C@@H]1C(=O)N(C)c2cnc(Nc3ccc(C(=O)NC[C@@H](O)CN4CCN(C)CC4)c4c3OC(C)(C)C4)nc2N1C1CCCC1` [Example 20, 7-[[(7R)-8-Cyclopentyl-7-ethyl-5-methyl-6-oxo-7H-pteridin-2-yl]amino]-N-[(2R)-3-(4-methylpiperazin-1-yl)-2-hydroxy-propyl]-2,2-dimethyl-3H-benzofuran-4-carboxamide], the half-maximal inhibitory concentration (IC50) was 8 nM.

As for `CC[C@@H]1C(=O)N(C)c2cnc(Nc3ccc(C(=O)NC[C@H](O)CN4CCN(C)CC4)c4c3OC(C)(C)C4)nc2N1C1CCCC1` [Example 21, 7-[[(7R)-8-Cyclopentyl-7-ethyl-5-methyl-6-oxo-7H-pteridin-2-yl]amino]-N-[(2S)-3-(4-methylpiperazin-1-yl)-2-hydroxy-propyl]-2,2-dimethyl-3H-benzofuran-4-carboxamide], the IC50 is 7 nM.

`CC[C@@H]1C(=O)N(C)c2cnc(Nc3ccc(C(=O)NC4CCN(C)CC4)c4c3OCC4)nc2N1C(C)C` [Example 22, 7-[[(7R)-7-Ethyl-8-isopropyl-5-methyl-6-oxo-7H-pteridin-2-yl]amino]-N-(1-methyl-4-piperidyl)-2,3-dihydrobenzofuran-4-carboxamide]: it took 2 nM to reach half-maximal inhibition (IC50).

`CC[C@@H]1C(=O)N(C)c2cnc(Nc3ccc(C(=O)N[C@H]4C[C@@H]5CN(C)C[C@@H]5C4)c4c3OCC4)nc2N1C(C)C` [Example 24, (cis-endo)-N-[2-Methyl-3,3a,4,5,6,6a-hexahydro-1H-cyclopenta[c]pyrrol-5-yl]-7-[[(7R)-7-ethyl-8-isopropyl-5-methyl-6-oxo-7H-pteridin-2-yl]amino]-2,3-dihydrobenzofuran-4-carboxamide] returned an IC50 of 2 nM.

Compound `CC[C@@H]1C(=O)N(C)c2cnc(Nc3ccc(C(=O)NC[C@@H](O)CN4CCN(C)CC4)c4c3OCC4)nc2N1C1CCCC1` [Example 25, 7-[[(7R)-8-Cyclopentyl-7-ethyl-5-methyl-6-oxo-7H-pteridin-2-yl]amino]-N-[(2R)-2-hydroxy-3-(4-methylpiperazin-1-yl)propyl]-2,3-dihydrobenzofuran-4-carboxamide] gave an IC50 of 3 nM.

As a reminder, the IC50 is the midpoint of a concentration-inhibition curve. High values mean a need for much substance, low ones inhibition by little substance.
